# Experimental data taken from patent US20180185408A1, “ANTIFUNGAL NYLON-3 POLYMERS AND COMBINATION THERAPY USING THEM TO TREAT FUNGAL INFECTIONS” (priority 2016, published 2018).
# Where two headings read alike, the source gives them in different places.
# Tests used:
# Candida albicans = assay: MIC by broth microdilution (CLSI M27-A3); type: cell-based
# Candida lusitaniae = assay: MIC by broth microdilution (CLSI M27-A3); type: cell-based
structure (smiles),measurement,setting,value
"C[C@@H]1[C@H](O)[C@@H](C)/C=C/C=C/C=C/C=C/C=C/C=C/C=C/[C@H](O[C@@H]2O[C@H](C)[C@@H](O)[C@H](N)[C@@H]2O)C[C@@H]2O[C@](O)(C[C@@H](O)C[C@@H](O)[C@H](O)CC[C@@H](O)C[C@@H](O)CC(=O)O[C@H]1C)C[C@H](O)[C@H]2C(=O)O [AMB, amphotericin B]",MIC,"Candida albicans; C. albicans (E4), Amp B Resistant, RPMI 1640 (0.2% Glucose), […]10^5 cells/mL, 30° C.",3.13 µg/mL
same,MIC,"Candida albicans; C. albicans (E4), […]10^3 cells/mL, 35°C, read-out: MIC",3.4 µM
same,MIC,"Candida albicans; C. albicans (Gu5), Fluconazole Resistant, RPMI 1640 (0.2% Glucose), […]10^5 cells/mL, 30° C.",0.78 µg/mL
same,MIC,"Candida albicans; C. albicans (Gu5), […]10^3 cells/mL, 35°C, read-out: MIC",0.9 µM
same,MIC,"Candida albicans; C. albicans (K1), Fluconazole Resistant, RPMI 1640 (0.2% Glucose), […]10^5 cells/mL, 30° C.",0.78 µg/mL
same,MIC,"Candida albicans; C. albicans (K1), […]10^3 cells/mL, 35°C, read-out: MIC",1.7 µM
same,MIC,"Candida albicans; C. albicans (SC5314), […]10^3 cells/mL, 35°C, read-out: MIC",0.9 µM
same,MIC,"Candida albicans; C. albicans (SCG5314), Sensitive, RPMI 1640 (0.2% Glucose), […]10^5 cells/mL, 30° C.",0.78 µg/mL
same,MIC,"Candida albicans; E4, […]10^3 cells/mL, 35°C, OD600 24 h, avg.",6.3 µg/mL
same,MIC,"Candida albicans; E4, […]10^3 cells/mL, 35°C, OD600 24 h, avg., read-out: MIC",6.8 µM
same,MIC,"Candida albicans; E4, […]10^3 cells/mL, 35°C, OD600 24 h, trial 1",6.3 µg/mL
same,MIC,"Candida albicans; E4, […]10^3 cells/mL, 35°C, OD600 24 h, trial 1, read-out: MIC",6.8 µM
same,MIC,"Candida albicans; E4, […]10^3 cells/mL, 35°C, OD600 24 h, trial 2",6.3 µg/mL
same,MIC,"Candida albicans; E4, […]10^3 cells/mL, 35°C, OD600 24 h, trial 2, read-out: MIC",6.8 µM
same,MIC,"Candida albicans; E4, […]10^5 cells/mL, 30°C, OD600 48 h, avg.",3.1 µg/mL
same,MIC,"Candida albicans; E4, […]10^5 cells/mL, 30°C, OD600 48 h, avg., read-out: MIC",3.4 µM
same,MIC,"Candida albicans; E4, […]10^5 cells/mL, 30°C, OD600 48 h, trial 1",3.1 µg/mL
same,MIC,"Candida albicans; E4, […]10^5 cells/mL, 30°C, OD600 48 h, trial 1, read-out: MIC",3.4 µM
same,MIC,"Candida albicans; E4, […]10^5 cells/mL, 30°C, OD600 48 h, trial 2",3.1 µg/mL
same,MIC,"Candida albicans; E4, […]10^5 cells/mL, 30°C, OD600 48 h, trial 2, read-out: MIC",3.4 µM
same,MIC,"Candida albicans; Gu5, […]10^3 cells/mL, 35°C, OD600 24 h, avg.",2.0 µg/mL
same,MIC,"Candida albicans; Gu5, […]10^3 cells/mL, 35°C, OD600 24 h, avg., read-out: MIC",2.2 µM
same,MIC,"Candida albicans; Gu5, […]10^3 cells/mL, 35°C, OD600 24 h, trial 1",<1.6 µg/mL
same,MIC,"Candida albicans; Gu5, […]10^3 cells/mL, 35°C, OD600 24 h, trial 1, read-out: MIC",<1.7 µM
same,MIC,"Candida albicans; Gu5, […]10^3 cells/mL, 35°C, OD600 24 h, trial 2",3.1 µg/mL
same,MIC,"Candida albicans; Gu5, […]10^3 cells/mL, 35°C, OD600 24 h, trial 2, read-out: MIC",3.4 µM
same,MIC,"Candida albicans; Gu5, […]10^5 cells/mL, 30°C, OD600 48 h, avg.",0.8 µg/mL
same,MIC,"Candida albicans; Gu5, […]10^5 cells/mL, 30°C, OD600 48 h, avg., read-out: MIC",0.9 µM
same,MIC,"Candida albicans; Gu5, […]10^5 cells/mL, 30°C, OD600 48 h, trial 1",0.8 µg/mL
same,MIC,"Candida albicans; Gu5, […]10^5 cells/mL, 30°C, OD600 48 h, trial 1, read-out: MIC",0.9 µM
same,MIC,"Candida albicans; Gu5, […]10^5 cells/mL, 30°C, OD600 48 h, trial 2",0.8 µg/mL
same,MIC,"Candida albicans; Gu5, […]10^5 cells/mL, 30°C, OD600 48 h, trial 2, read-out: MIC",0.9 µM
same,MIC,"Candida albicans; K1, […]10^3 cells/mL, 35°C, OD600 24 h, avg.",<1.6 µg/mL
same,MIC,"Candida albicans; K1, […]10^3 cells/mL, 35°C, OD600 24 h, avg., read-out: MIC",<1.7 µM
same,MIC,"Candida albicans; K1, […]10^3 cells/mL, 35°C, OD600 24 h, trial 1",<1.6 µg/mL
same,MIC,"Candida albicans; K1, […]10^3 cells/mL, 35°C, OD600 24 h, trial 1, read-out: MIC",<1.7 µM
same,MIC,"Candida albicans; K1, […]10^3 cells/mL, 35°C, OD600 24 h, trial 2",<1.6 µg/mL
same,MIC,"Candida albicans; K1, […]10^3 cells/mL, 35°C, OD600 24 h, trial 2, read-out: MIC",<1.7 µM
same,MIC,"Candida albicans; K1, […]10^5 cells/mL, 30°C, OD600 48 h, avg.",1.6 µg/mL
same,MIC,"Candida albicans; K1, […]10^5 cells/mL, 30°C, OD600 48 h, avg., read-out: MIC",1.7 µM
same,MIC,"Candida albicans; K1, […]10^5 cells/mL, 30°C, OD600 48 h, trial 1",1.6 µg/mL
same,MIC,"Candida albicans; K1, […]10^5 cells/mL, 30°C, OD600 48 h, trial 1, read-out: MIC",1.7 µM
same,MIC,"Candida albicans; K1, […]10^5 cells/mL, 30°C, OD600 48 h, trial 2",1.6 µg/mL
same,MIC,"Candida albicans; K1, […]10^5 cells/mL, 30°C, OD600 48 h, trial 2, read-out: MIC",1.7 µM
same,MIC,"Candida albicans; SC5314, […]10^3 cells/mL, 35°C, OD600 24 h, avg.",4.7 µg/mL
same,MIC,"Candida albicans; SC5314, […]10^3 cells/mL, 35°C, OD600 24 h, avg., read-out: MIC",5.1 µM
same,MIC,"Candida albicans; SC5314, […]10^3 cells/mL, 35°C, OD600 24 h, trial 1",3.1 µg/mL
same,MIC,"Candida albicans; SC5314, […]10^3 cells/mL, 35°C, OD600 24 h, trial 1, read-out: MIC",3.4 µM
same,MIC,"Candida albicans; SC5314, […]10^3 cells/mL, 35°C, OD600 24 h, trial 2",6.3 µg/mL
same,MIC,"Candida albicans; SC5314, […]10^3 cells/mL, 35°C, OD600 24 h, trial 2, read-out: MIC",6.8 µM
same,MIC,"Candida albicans; SC5314, […]10^5 cells/mL, 30°C, OD600 48 h, avg.",0.8 µg/mL
same,MIC,"Candida albicans; SC5314, […]10^5 cells/mL, 30°C, OD600 48 h, avg., read-out: MIC",0.9 µM
same,MIC,"Candida albicans; SC5314, […]10^5 cells/mL, 30°C, OD600 48 h, trial 1",0.8 µg/mL
same,MIC,"Candida albicans; SC5314, […]10^5 cells/mL, 30°C, OD600 48 h, trial 1, read-out: MIC",0.9 µM
same,MIC,"Candida albicans; SC5314, […]10^5 cells/mL, 30°C, OD600 48 h, trial 2",0.8 µg/mL
same,MIC,"Candida albicans; SC5314, […]10^5 cells/mL, 30°C, OD600 48 h, trial 2, read-out: MIC",0.9 µM
same,MIC,"Candida lusitaniae; C. Lusitania (CL3), Sensitive, RPMI 1640 (0.2% Glucose), […]10^5 cells/mL, 30° C.",0.4 µg/mL
same,MIC,"Candida lusitaniae; C. lusitaniae (CL3), […]10^3 cells/mL, 35°C, read-out: MIC",0.4 µM
same,MIC,"Candida lusitaniae; CL3, […]10^3 cells/mL, 35°C, OD600 24 h, avg.",<1.6 µg/mL
same,MIC,"Candida lusitaniae; CL3, […]10^3 cells/mL, 35°C, OD600 24 h, avg., read-out: MIC",<1.7 µM
same,MIC,"Candida lusitaniae; CL3, […]10^3 cells/mL, 35°C, OD600 24 h, trial 1",<1.6 µg/mL
same,MIC,"Candida lusitaniae; CL3, […]10^3 cells/mL, 35°C, OD600 24 h, trial 1, read-out: MIC",<1.7 µM
same,MIC,"Candida lusitaniae; CL3, […]10^3 cells/mL, 35°C, OD600 24 h, trial 2",<1.6 µg/mL
same,MIC,"Candida lusitaniae; CL3, […]10^3 cells/mL, 35°C, OD600 24 h, trial 2, read-out: MIC",<1.7 µM
same,MIC,"Candida lusitaniae; CL3, […]10^5 cells/mL, 30°C, OD600 48 h, avg.",0.4 µg/mL
